Values after ≈ are worked out from the molar mass of the structure shown. Read-outs that look alike come from different tables or passages of the source.
Legend:
BON1 + SSTR2A cells [1] = assay: Viability after chemotherapeutic agents (GI50, MTT); format: cell-based, human; conditions: 24 h treatment, further 5 days growth, from fitted curves
Experimental: (§1) U2OS/U2OS + SSTR2A and BON1/BON1 + SSTR2A cells were seeded in 96-well plates at 2 × 10^3 and 4 × 10^3 cells/well, respectively, and allowed to adhere overnight in the incubator. Cells were then treated with a range of hydroxyurea, gemcitabine, and triapine concentrations for 24 h. Hydroxyurea in U2OS/U2OS + SSTR2A cells was used at 152 µg/mL for 24 h. Chemotherapeutics were then removed, and cells washed with PBS prior to returning to the incubator in fresh medium. Cells were then grown for a further 5 days post-chemotherapeutics prior to assessing metabolic viability, as described above. Chemotherapeutic concentrations needed to inhibit population growth by 50% (GI50) were then calculated.

BON1 cells [2] = format: cell-based, human; conditions: parental BON1 cells; label = chemotherapeutic pre-treatment; MTT at day 7, N = 3
Experimental: (§2) Excess MTT was then removed. Formazan crystals were dissolved with 50 μL/well in dimethylsulfoxide (DMSO) for 2 min at room temperature (RT) under gentle agitation. Well absorbance at 570 nm was then measured on a UV/V is absorbance microplate reader (SPECTROstar® Nano, BMG LABTECH). Metabolic viability, following signal-to-background correction, was calculated as the percentage signal in treated cells normalised to the signal in untreated cells.

U2OS cells [3] = format: cell-based, human; conditions: parental U2OS cells; label = chemotherapeutic pre-treatment; MTT at day 7, N = 3
Experimental: as §2

U2OS + SSTR2A cells [4] = assay: Viability after chemotherapeutic agents (GI50, MTT); format: cell-based; conditions: Homo sapiens, 24 h treatment, further 5 days growth, from fitted curves, N = 3
Experimental: as §1

U2OS + SSTR2A cells [5] = assay: X-ray radiotherapy viability post chemotherapeutics; format: cell-based, human; conditions: 24 h 2 mM HU, 4 ng/mL GEM, 200 ng/mL TRI, X-ray 0, 2 and 4 Gy, N = 3 (Figure S7)
Experimental: (§3) Cells where then treated with chemotherapeutics for 24 hours at 2 mM HU, 4 ng/mL GEM and 200 ng/mL TRI. Following chemotherapeutics, media was refreshed, and cells were X-ray irradiated at 0 (sham-irradiated), 2 and 4 Gy using the image-guided small animal radiotherapy system, SmART+, X-ray irradiator (Precision X-ray Irradiation). The calibrated dose-rate was 6.1796 Gy.min^-1; the X-ray beam used for treatment was set at a voltage of 225 kV, a current of 20 mA and passed through a 0.3 mm Cu filter. Viability analyses were then carried out as above.

U2OS cells [6] = assay: as above; format: cell-based, human; conditions: 24 h 2 mM HU, 4 ng/mL GEM, 200 ng/mL TRI, X-ray 0, 2 and 4 Gy, N = 3 (Figure S7)
Experimental: as §3

U2OS + SSTR2A cells [7] = assay: Subcellular localisation of [^177Lu]Lu-DOTA-TATE; conditions: no chemotherapeutic (Untreated), 24 h, 25 nM, mean ± SD, N = 3
Experimental: (§5) Subcellular localisation of [^177Lu]Lu-DOTA-TATE in cells followed the protocol for the uptake assays above, except that, following removal of excess [^177Lu]Lu-DOTA-TATE, cells were incubated with ice-cold 0.1 M glycine (pH 2.5) for 10 min prior to pooling with a further PBS wash (“Membrane” fraction). Cells were then detached with Accutase and diluted in medium prior to pelleting and transferring the supernatant to the “Cytoplasm” fraction. The cell pellet was resuspended in ice-cold cell lysis buffer (25 mM KCl, 5 mM MgCl2, 10 mM Tris-HCl, and 0.5% v/v IGEPAL CA-630) and incubated for 15 min. Intact nuclei were pelleted and separated from lysed cells by centrifugation (10,000 g, 3 min) and the supernatant removed and combined with the previous portion of the “Cytoplasm” fraction. Pelleted nuclei were resuspended in phosphate-buffered saline (PBS) and transferred to tubes to gamma counting (“Nuclear” fraction). The percentage distribution of [^177Lu]Lu-DOTA-TATE in cells was then calculated for the membrane, cytoplasm, and nucleus.

U2OS cells [8] = assay: [^177Lu]Lu-DOTA-TATE uptake; format: cell-based, human; conditions: U2OS parental cells, 24-hour incubation, 25 nM DOTA-TATE, 0.74–1.03 MBq, mean ± SD, N = 3–4
Experimental: (§6) 1.5 × 10^5 U2OS/U2OS + SSTR2A or 2 × 10^5 BON1/BON1 + SSTR2A cells were seeded into 6-well plates in medium and allowed to adhere overnight in the incubator. The following day, 0.70–0.93 MBq (U2OS/U2OS + SSTR2A) or 0.75–1.03 MBq (BON1/BON1 + SSTR2A) [^177Lu]Lu-DOTA-TATE was added to wells (25 nM total DOTA-TATE) and incubated for 24 h. Excess [^177Lu]Lu-DOTA-TATE was then removed from wells and pooled together with two PBS washes (“Unbound” fraction). Cell-associated activity was harvested from wells by lysing cells with 0.5 M NaOH solution and pooled with a subsequent PBS wash (“Bound” fraction). Data was presented as percentage added activity (%AA) and activity per cell (Bq/cell).

BON1 + SSTR2A cells [9] = assay: Subcellular localisation of [^177Lu]Lu-DOTA-TATE; conditions: no chemotherapeutic (Untreated), 24 h, 25 nM, mean ± SD, N = 3
Experimental: as §5

BON1 cells [10] = assay: [^177Lu]Lu-DOTA-TATE uptake; format: cell-based, human; conditions: BON1 parental cells, 24-hour incubation, 25 nM DOTA-TATE, 0.74–1.03 MBq, mean ± SD, N = 3–4
Experimental: as §6

BON1 + SSTR2A cells [11] = assay: [^177Lu]Lu-DOTA-TATE uptake; format: cell-based, human; conditions: 24-hour incubation, 25 nM DOTA-TATE, 0.74–1.03 MBq, mean ± SD, N = 3–4
Experimental: as §6
1.5 × 10^5 U2OS/U2OS + SSTR2A or 2 × 10^5 BON1/BON1 + SSTR2A cells were seeded into 6-well plates in DMEM-HG or DMEM/F-12 medium, respectively, and allowed to adhere overnight in the incubator. Cells where then treated with chemotherapeutics for 24 h at the following concentrations: 152 µg/mL hydroxyurea, 4 ng/mL gemcitabine, and 200 ng/mL triapine for U2OS/U2OS + SSTR2A cells; and 152 µg/mL hydroxyurea, 2 ng/mL gemcitabine, and 100 ng/mL triapine for BON1/BON1 + SSTR2A cells. Following a 4 h recovery period after chemotherapeutics, medium was replaced with 1 mL of medium containing [^177Lu]Lu-DOTA-TATE for 24 h at 0.7–0.93 MBq for U2OS/U2OS + SSTR2A cells or 0.75–1.03 MBq for BON1/BON1 + SSTR2A cells. […]

U2OS + SSTR2A cells [12] = assay: [^177Lu]Lu-DOTA-TATE uptake (with or without chemotherapeutic pre-treatment); conditions: 25 nM DOTA-TATE, mean ± SD
Experimental: as §6
1.5 × 10^5 U2OS/U2OS + SSTR2A or 2 × 10^5 BON1/BON1 + SSTR2A cells were seeded into 6-well plates in DMEM-HG or DMEM/F-12 medium, respectively, and allowed to adhere overnight in the incubator. Cells where then treated with chemotherapeutics for 24 h at the following concentrations: 152 µg/mL hydroxyurea, 4 ng/mL gemcitabine, and 200 ng/mL triapine for U2OS/U2OS + SSTR2A cells; and 152 µg/mL hydroxyurea, 2 ng/mL gemcitabine, and 100 ng/mL triapine for BON1/BON1 + SSTR2A cells. Following a 4 h recovery period after chemotherapeutics, medium was replaced with 1 mL of medium containing [^177Lu]Lu-DOTA-TATE for 24 h at 0.7–0.93 MBq for U2OS/U2OS + SSTR2A cells or 0.75–1.03 MBq for BON1/BON1 + SSTR2A cells. […] Uptake and viability studies were then carried out as above.

U2OS + SSTR2A cells [13] = assay: [^177Lu]LuCl3 uptake; format: cell-based, human; conditions: 0.97 MBq, 24-hour incubation, N = 3 (Figure S3)
Experimental: (§4) The following day, 0.97 MBq [^177Lu]LuCl3 was added to wells and incubated for 24 hours. […] Data is presented as both percentage uptake of total added activity and normalised as Bq/cell uptake.

U2OS cells [14] = assay: [^177Lu]LuCl3 uptake; format: cell-based, human; conditions: 0.97 MBq, 24-hour incubation, N = 3 (Figure S3)
Experimental: as §4

U2OS + SSTR2A cells [15] = assay: [^177Lu]LuCl3 and DOTA-TATE viability (MTT); format: cell-based, human; conditions: MTT after 7 days
Experimental: 2x10^3 U2OS or U2OS+SSTR2A cells, after treatment for 24 hours with [^177Lu]LuCl3 (0.97 MBq) or DOTA-TATE (25 nM, U2OS+SSTR2A only), were reseeded in technical sextuplet wells in 96-well plates containing a final media volume of 180 µL/well. Dedicated wells with no cells present served as background signal controls. Plates were placed in the incubator and cells allowed to adhere and grow for 7 days. After 7 days, DMEM-HG was aspirated and replaced with 90 µL of basal DMEM-HG containing 0.5 mg/mL MTT. Plates were returned to the incubator for 4 h prior to aspiration of excess MTT. Formazan crystals were then dissolved with 50 µL/well DMSO for 2 minutes at RT under gentle agitation. Well absorbance at 570 nm wavelength was then immediately measured on a UV/Vis absorbance microplate reader (SPECTROstar® Nano, BMG LABTECH). Metabolic viability, following signal background-correction, was calculated as the percentage of signal normalized to the signal of the respective fully-untreated or chemotherapeutic-alone cells.

[16] = Homo sapiens, N = 3, read-out: GI50

Molecule: Nc1ccn([C@@H]2O[C@H](CO)[C@@H](O)C2(F)F)c(=O)n1 [Gemcitabine, gemcitabine]
- GI50 (BON1 + SSTR2A cells [1]; [16]): 0.0022 µg/mL (≈ 0.00836 µM)
- Effect on viability of combining chemotherapeutic with [^177Lu]Lu-DOTA-TATE (BON1 cells [2]): did not affect viability
- Effect on viability of combining chemotherapeutic with [^177Lu]Lu-DOTA-TATE (U2OS cells [3]): did not affect viability
- GI50 (U2OS + SSTR2A cells [4]): 0.0047 µg/mL (≈ 0.0179 µM)
- potentiation of X-ray radiation effects by chemotherapeutic pre-treatment (viability) (U2OS + SSTR2A cells [5]): potentiation of radiation effects was seen
- potentiation of X-ray radiation effects by chemotherapeutic pre-treatment (viability) (U2OS cells [6]): potentiation of radiation effects was seen

Molecule: NC(=O)NO [Hydroxyurea, hydroxyurea]
- GI50 (BON1 + SSTR2A cells [1]; N = 3): 248.1 (152) µg/mL
- Effect on viability of combining chemotherapeutic with [^177Lu]Lu-DOTA-TATE (BON1 cells [2]): did not affect viability
- Effect on viability of combining chemotherapeutic with [^177Lu]Lu-DOTA-TATE (U2OS cells [3]): did not affect viability
- potentiation of X-ray radiation effects by chemotherapeutic pre-treatment (viability) (U2OS + SSTR2A cells [5]): potentiation of radiation effects was seen
- potentiation of X-ray radiation effects by chemotherapeutic pre-treatment (viability) (U2OS cells [6]): potentiation of radiation effects was seen

Molecule: NC(=S)N/N=C/c1ncccc1N [Triapine, triapine]
- GI50 (BON1 + SSTR2A cells [1]; [16]): 0.327 µg/mL (≈ 1.67 µM)
- Effect on viability of combining chemotherapeutic with [^177Lu]Lu-DOTA-TATE (BON1 cells [2]): did not affect viability
- Effect on viability of combining chemotherapeutic with [^177Lu]Lu-DOTA-TATE (U2OS cells [3]): did not affect viability
- GI50 (U2OS + SSTR2A cells [4]): 0.12 µg/mL (≈ 0.617 µM)
- potentiation of X-ray radiation effects by chemotherapeutic pre-treatment (viability) (U2OS + SSTR2A cells [5]): potentiation of radiation effects was seen
- potentiation of X-ray radiation effects by chemotherapeutic pre-treatment (viability) (U2OS cells [6]): potentiation of radiation effects was seen

Molecule: C[C@@H](O)[C@H](NC(=O)[C@@H]1CSSC[C@H](NC(=O)[C@@H](Cc2ccccc2)NC(=O)CN2CCN(CC(=O)O)CCN(CC(=O)O)CCN(CC(=O)O)CC2)C(=O)N[C@@H](Cc2ccc(O)cc2)C(=O)N[C@H](Cc2c[nH]c3ccccc23)C(=O)N[C@@H](CCCCN)C(=O)N[C@@H]([C@@H](C)O)C(=O)N1)C(=O)O [[^177Lu]Lu-DOTA-TATE, [^177Lu]Lu-[DOTA^0-Tyr^3]octreotate, metal not drawn]
- Cytoplasm (%) of total uptake of [^177Lu]Lu-DOTA-TATE (U2OS + SSTR2A cells [7]): 93.5 ± 0.9%
- Membrane (%) of total uptake of [^177Lu]Lu-DOTA-TATE (U2OS + SSTR2A cells [7]): 4.1 ± 0.6%
- Nucleus (%) of total uptake of [^177Lu]Lu-DOTA-TATE (U2OS + SSTR2A cells [7]): 2.3 ± 0.4%
- Uptake (mBq/cell) (U2OS cells [8]): 4.4 ± 1.0 mBq/cell
- Uptake (%AA) (U2OS cells [8]; percentage added activity): 0.3 ± 0.0 %AA
- Cytoplasm (%) of total uptake of [^177Lu]Lu-DOTA-TATE (BON1 + SSTR2A cells [9]): 90.2 ± 1.7%
- Membrane (%) of total uptake of [^177Lu]Lu-DOTA-TATE (BON1 + SSTR2A cells [9]): 7.3 ± 1.0%
- Nucleus (%) of total uptake of [^177Lu]Lu-DOTA-TATE (BON1 + SSTR2A cells [9]): 2.5 ± 0.7%
- Uptake (mBq/cell) (BON1 cells [10]): 6.5 ± 6.3 mBq/cell
- Uptake (%AA) (BON1 cells [10]; percentage added activity): 0.5 ± 0.3 %AA
- Uptake (mBq/cell) (BON1 + SSTR2A cells [11]): 111.2 ± 16.5 mBq/cell
- Uptake (%AA) (BON1 + SSTR2A cells [11]; percentage added activity): 9.6 ± 0.6 %AA
- Uptake (mBq/cell) (U2OS + SSTR2A cells [12]; U2OS + SSTR2A cells, 24-hour incubation, 0.74–1.03 MBq, N = 3–4): 216.9 ± 47.4 mBq/cell
- Uptake (%AA) (U2OS + SSTR2A cells [12]; U2OS + SSTR2A cells, 24-hour incubation, 0.74–1.03 MBq, percentage added activity, N = 3–4): 17.8 ± 2.4 %AA
- Internalized quantities of [^177Lu]Lu-DOTA-TATE (U2OS + SSTR2A cells [12]; untreated (no chemotherapeutic) U2OS + SSTR2A cells, 24 h, 0.7–1.03 MBq): 0.2 ± 0.05 Bq/cell

Molecule: [177Lu+3].[Cl-].[Cl-].[Cl-] [[^177Lu]LuCl3]
- Uptake of unchelated [^177Lu]LuCl3 (U2OS + SSTR2A cells [13]): low
- Uptake of unchelated [^177Lu]LuCl3 (U2OS cells [14]): low
- metabolic viability after [^177Lu]LuCl3 (U2OS + SSTR2A cells [15]; SSTR2A-expressing cells, 0.97 MBq for 24 hours, N = 3 (Figure S4)): only minor reductions in metabolic viability

Molecule: DOTA-TATE
- metabolic viability after non-radioactive DOTA-TATE (U2OS + SSTR2A cells [15]; U2OS + SSTR2A cells, 25 nM for 24 h, N = 4 (Figure S5)): did not reduce metabolic viability

Source: article PMC11322472, “Enhancing [^177Lu]Lu-DOTA-TATE therapeutic efficacy in vitro by combining it with metronomic chemotherapeutics” (EJNMMI Research, 2024)
